Laboratory results: patent US11352371B2, “Thienopyrimidine derivatives as ACC inhibitors and uses thereof” (Gilead Sciences, Inc., priority 2019, dated 2022)
pEC50: −log10 of the molar value.

Columns and labels:
HepG2 cells = experiment: In vitro De Novo Lipogenesis (DNL) assay, 13C-acetate incorporation into palmitic acid; type: cell-based; conditions: Homo sapiens, 1 hour preincubation, 24 hours with 10 mM 13C-labeled acetate
In short: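 HepG2 cells were preincubated with compound for 1 h, then given 10 mM 13C-acetate for 24 h at 37 °C. Lipids were saponified with KOH/ethanol at 70 °C, and palmitate carrying 3–7 13C was quantified by RapidFire-QTOF MS. This signal was normalized to oleate and plotted against compound concentration.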

[1] = Liver partitioning / plasma PK study with and without rifampicin (pan-OATP inhibitor); type: in vivo, cynomolgus monkeys
Procedure: To further investigate the liver partitioning properties of the compound of Example 1, the compound was co-administered with rifampicin (RIF, pan-OATP inhibitor) in cynomolgus monkeys in vivo and hepatic uptake experiments were performed in monkey hepatocytes in vitro. […] Therefore the coadministration experiments as described below in more detail were conducted to administer Example 1 compound orally (5 mg/kg) in the absence and presence of IV administration of RIF (30 mg/kg).
To assess the OATP (organic anion transporting polypeptides)-mediated liver specific delivery of the Example 1 compound, plasma pharmacokinetics (PK) was evaluated in cynomolgus monkeys. The in-life phase of the cyno PK studies was conducted at Covance Laboratories (Madison, Wis.). Animals were housed and handled in accordance with the Guide for the Care and Use of Laboratory Animals, Institute of Laboratory Animal Resources. The protocols were reviewed and approved by the Institutional Animal Care and Use Committees (IACUC). Male Cynomolgus monkeys weighing approximately 3 kg were used for the in-life portion of the PK studies. The animals were fasted overnight prior to dosing and up to 4 hours after dosing. The animals were administered with the test compound (Example 1) alone or coadministered with 30 mg/kg rifampicin prior to test compound administration at 5 mg/kg via oral gavage (3 monkeys per group). The aqueous formulation contains dimethyl sulfoxide, kolliphor, labrasol and propylene glycol. Approximately 0.5 mL blood samples were collected from each animal and analyzed for test compound (Example 1) concentrations. For LC-MS/MS analysis, plasma samples were prepared through protein precipitation extraction and analyzed on a Sciex API 5500 LC-MS/MS instrument (Applied Biosystems, Foster City, Calif.). Analyte was eluted on a 1.7 μm 50×2.1 mm Acquity UPLC BEH C18 column (Waters, Milford, Mass.) using mobile phases containing 0.1% formic acid and a linear gradient from 60% to 95% acetonitrile at a flow rate of 800 μL/min. Noncompartmental pharmacokinetic parameters were calculated using Phoenix 32 (Pharsight Corporation, Mountain View, Calif.). […]

[2] = decrease (↓) with rifampicin pretreatment vs no pretreatment
[3] = increase (↑) with rifampicin pretreatment vs no pretreatment
[4] = male, cynomolgus monkey, plasma, cynomolgus monkeys, 5 mg/kg oral, No-Pre-treatment

In the case of COc1ccccc1[C@H](Cn1c(=O)n(C(C)(C)C(=O)NS(=O)(=O)C2(C)CC2)c(=O)c2c(C)c(-c3ncco3)sc21)O[C@@H]1C[C@H]2CC[C@@H](C1)O2 [Example 1, 2-(1-((R)-2-(((1R,3s,5S)-8-oxabicyclo[3.2.1]octan-3-yl)oxy)-2-(2-methoxyphenyl)ethyl)-5-methyl-6-(oxazol-2-yl)-2,4-dioxo-1,4-dihydrothieno[2,3-d]pyrimidin-3(2H)-yl)-2-methyl-N-((1-methylcyclopropyl)sulfonyl)propanamide], the pEC50 (HepG2 cells) was 9.00, the “plasma exposures with RIF treatment relative to monkeys not treated with RIF” value ([1]; 5 mg/kg oral, RIF 30 mg/kg IV) was “significantly increased” and the “CL/F Fold-Change” value [1, 2] was “↓ 299”. For the same molecule, the “Vz/F Fold-Change” value [1, 2] was “↓ 165”, the “AUC Fold-Change” value [1, 3] was “↑ 165” and the “Cmax Fold-Change” value [1, 3] was “↑ 86”. It also gave an AUC [1, 4] of 0.294 µM·h, a CL/F [1, 4] of 748 mL/min/kg and a Cmax [1, 4] of 162 nM. For the same molecule, the Vd/F ([1]; male, cynomolgus monkey, plasma, cynomolgus monkeys, 5 mg/kg oral, No-Pre-treatment, read-out: Vz/F) was 72.7 L/kg.
